One compound from patent publication EP1189615B1, “ENDOPARASITICIDAL SYNERGISTIC COMBINATION CONTAINING CYCLIC DEPSIPEPTIDES AND PIPERAZINES” (Bayer HealthCare AG, priority 1999, dated 2000) can be followed below.

One experiment relates to Nematospiroides dibius. The note with it: Maus. The text has this: (§1) Die Durchführung der biologischen Tests erfolgte entsprechend den bekannten Verfahren (Plant et. al. Pesticide Science, 1996, 48, S. 351 ff.).
The subject of another experiment is Trichinella spiralis. The conditions noted are these: in-vitro.
Text: as §1

The test system of a further experiment is Heterakis spumosa. The conditions noted are these: Maus.
Text: as §1

Where two headings read alike, the source gives them in different places.

`C1CNCCN1` [Piperazin]: the Wirkung in the experiment on Nematospiroides dibius (Dosis 2 x 2000 mg/kg) is given as 2 (Wurmreduktion 75-90 %); in the experiment with Nematospiroides dibius (Dosis 4 x 1000 mg/kg) it was 1 (Wurmreduktion 50-75 %); with Trichinella spiralis (Konzentration 500 µg/ml) it was 0; with Trichinella spiralis (Konzentration 1000 µg/ml), 0-1; in the experiment with Heterakis spumosa (Dosis 4 x 100 mg/kg), 0 (Wurmreduktion <50 %); in the experiment on Heterakis spumosa (Dosis 4 x 250 mg/kg), 1 (Wurmreduktion 50-75 %).
